Five compounds from patent EP2878677A1, “Activators of protein phosphatase 5” (Deutsches Zentrum für Neurodegenerative Erkrankungen e.V. …, priority 2013, dated 2015) can be followed below.

The test addresses T1, PP5 (Rattus norvegicus, UniProt P53042).
T1 construct: The full-length PP5 and its deletion variants were purified and the activity was determined; made in house; host or cells: E. coli BL21-CodonPlus (DE3)-RIL
T1 sequence (P53042 1-499): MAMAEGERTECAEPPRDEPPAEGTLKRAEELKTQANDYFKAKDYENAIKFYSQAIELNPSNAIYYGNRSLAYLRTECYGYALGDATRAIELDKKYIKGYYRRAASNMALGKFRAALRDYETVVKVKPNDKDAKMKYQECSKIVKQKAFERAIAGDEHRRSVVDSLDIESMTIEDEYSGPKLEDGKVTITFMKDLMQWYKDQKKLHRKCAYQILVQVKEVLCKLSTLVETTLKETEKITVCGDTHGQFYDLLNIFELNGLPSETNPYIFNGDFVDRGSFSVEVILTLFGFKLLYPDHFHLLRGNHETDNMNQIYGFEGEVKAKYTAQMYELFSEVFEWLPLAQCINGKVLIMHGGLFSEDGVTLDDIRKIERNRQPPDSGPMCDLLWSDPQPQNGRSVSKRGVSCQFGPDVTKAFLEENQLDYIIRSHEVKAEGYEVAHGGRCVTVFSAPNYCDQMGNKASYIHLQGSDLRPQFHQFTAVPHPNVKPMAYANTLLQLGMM
In words: pNPP-based phosphatase assay with full-length mammalian PP5. The class given is biochemical. How it is done: Cloning and purification of PPH-5, Hsp90/DAF-21, CDC-37, YFP-Hsp90/DAF-21 were performed as described before (Gaiser et al., 2009; Gaiser et al., 2011; Gaiser et al., 2010). The purified human phosphatases PP1, PP2A and PP2B/PP3 were purified as described (Baumgrass et al., 2001; Mondragon et al., 1997; Tung et al., 1985). The expression clones of mammalian PP5, PP5-ΔN165 (166-499) and PP5-ΔC8 (1-491) were generated by PCR from plasmid-DNA containing full-length PP5 from Rattus norvegicus. PCR-products were inserted into the pET28b expression plasmid (Merck, Darmstadt, Germany) and verified by DNA sequencing (GATC Biotech, Konstanz, Germany). Proteins were expressed in BL21-CodonPlus (DE3)-RIL bacteria (Stratagene, LaJolla, USA). Bacterial cultures were grown to an OD600 of 0.8 and induced with 1 mM IPTG. Cells were disrupted using a cell disruption machine (IUL Instruments, Freiburg, Germany) and the lysate was loaded onto a HisTrap FF column (GE Healthcare, Freiburg, Germany). Protein was eluted in a buffer containing 400 mM imidazole. Eluted protein was dialyzed and applied to a ResourceQ anion exchange column (GE Healthcare, Freiburg, Germany). Finally, proteins were subjected to size exclusion chromatography on Superdex 200 PrepGrade gel filtration columns (GE Healthcare, Freiburg, Germany). Protein purity was assessed by SDS-PAGE and the molecular mass was determined by a MALDI-TOF/TOF mass spectrometer (Bruker, Bremen, Germany). Proteins were frozen in liquid nitrogen in 40 mM HEPES/KOH, pH 7.5, 20 mM KCl, 1 mM DTT and stored at -80 °C.
Phosphatase activity was followed by the conversion of para-nitrophenyl phosphate (pNPP) to para-nitophenole and absorption of the product at 410 nm (ε: 15100 cm^-1 M^-1) in a Varian Cary 100 spectrophotometer (Agilent Technologies, Boeblingen, Germany). The reaction was measured in 40 mM HEPES/KOH, 20 mM KCl, 5 mM MnCl2, 1 mM DTT, pH 7.5 and 60 mM pNPP at 20 °C if not indicated otherwise. Phosphatase concentration ranged from 50 to 500 nM in the assay. If indicated, Hsp90/DAF-21 peptide was supplemented in the assay at a concentration of 60 µM.
For characterization of the binding site of the P5SAs, deletion constructs of rat PP5 were generated. […] The full-length PP5 and its deletion variants were purified and the activity was determined in the absence and presence of 10 µM and 100 µM (45 µM in case of P5SA-5) of the substances, respectively (Figure 3A-C).

On to `CNC(=O)c1c(NC(=O)COCC(=O)Nc2sc3c(c2C(=O)NC)CCC3)sc2c1CCC2` [P5SA-5], for which, where the note is “at 45 µM”, the fold activation came out at 22.1 fold. The Kd (rat PP5, read-out: binding constant (affinity towards the mammalian protein)) was determined as 10 ± 5 µM. For `O=c1cc2nc(-c3ccc(F)cc3)nc(SCc3ccc(Br)cc3)n2[nH]1` [P5SA-4], the fold activation (at 143 µM) came out at 16.4 fold. For the setting “at 143 µM”, `FC(F)(F)c1c2c(nc3c(-c4ccc(Cl)cc4)cnn13)CCC2` [P5SA-1] displayed a fold activation of 2.7 fold. Consider `COc1ccc(-c2nc(Cc3ccc(Cl)cc3)no2)cc1OC` [P5SA-2], for which the fold activation (at 714 µM) came to 13.7 fold. On the same count and under the same terms, then `CN1CCc2c(sc(-n3cccc3)c2CNC(=O)NC23CC4CC(CC(C4)C2)C3)C1` [P5SA-3], with 7.0 fold.
